# Assay results: patent US20240092758A1, “IMIDAZOLO INDAZOLE COMPOUNDS AS JAK INHIBITORS” (Theravance Biopharma R&D IP, LLC, priority 2021, published 2024)
# How the values were obtained:
# JAK1 = JAK1 (Homo sapiens (Human), UniProt P23458); assay: Biochemical JAK kinase assay (LanthaScreen), JAK1; settings: for Ki: read-out: JAK1 pKi (converted)
# How it was run: (§1)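 LanthaScreen format: phospho-STAT1 (pTyr701) detected with 2 nM Tb antibody after 10 mM EDTA quench. Kinase step used Km-level ATP and 200 nM STAT1 peptide, 1 h at ambient after 1 h pre-incubation. Inhibition fitted to IC50, reported as pKi.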
# JAK2 = JAK2 (Homo sapiens (Human), UniProt O60674); assay: Biochemical JAK kinase assay (LanthaScreen), JAK2; settings: for Ki: read-out: JAK2 pKi (converted)
# How it was run: as §1
# [1] = system: IL-13 induced STAT6 phosphorylation in BEAS-2B human lung epithelial cells; assay: Cellular JAKI potency assay (BEAS-2B); format: cell-based; settings: Homo sapiens, BEAS-2B, BEAS-2B cells, read-out: BEAS2B pIC50 (converted)
# How it was run: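 AlphaLISA SureFire detection of Tyr641 pSTAT6 in lysates gave IC50s (4-parameter fit, expressed as pIC50). Cells: human BEAS-2B, exposed 1 h at 37 °C to compound dose series at 0.1% DMSO, then 30 min to IL-13 added at 80 ng/mL in HEPES-buffered HBSS with BSA.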
# Sequence of JAK2 (O60674 whole entry): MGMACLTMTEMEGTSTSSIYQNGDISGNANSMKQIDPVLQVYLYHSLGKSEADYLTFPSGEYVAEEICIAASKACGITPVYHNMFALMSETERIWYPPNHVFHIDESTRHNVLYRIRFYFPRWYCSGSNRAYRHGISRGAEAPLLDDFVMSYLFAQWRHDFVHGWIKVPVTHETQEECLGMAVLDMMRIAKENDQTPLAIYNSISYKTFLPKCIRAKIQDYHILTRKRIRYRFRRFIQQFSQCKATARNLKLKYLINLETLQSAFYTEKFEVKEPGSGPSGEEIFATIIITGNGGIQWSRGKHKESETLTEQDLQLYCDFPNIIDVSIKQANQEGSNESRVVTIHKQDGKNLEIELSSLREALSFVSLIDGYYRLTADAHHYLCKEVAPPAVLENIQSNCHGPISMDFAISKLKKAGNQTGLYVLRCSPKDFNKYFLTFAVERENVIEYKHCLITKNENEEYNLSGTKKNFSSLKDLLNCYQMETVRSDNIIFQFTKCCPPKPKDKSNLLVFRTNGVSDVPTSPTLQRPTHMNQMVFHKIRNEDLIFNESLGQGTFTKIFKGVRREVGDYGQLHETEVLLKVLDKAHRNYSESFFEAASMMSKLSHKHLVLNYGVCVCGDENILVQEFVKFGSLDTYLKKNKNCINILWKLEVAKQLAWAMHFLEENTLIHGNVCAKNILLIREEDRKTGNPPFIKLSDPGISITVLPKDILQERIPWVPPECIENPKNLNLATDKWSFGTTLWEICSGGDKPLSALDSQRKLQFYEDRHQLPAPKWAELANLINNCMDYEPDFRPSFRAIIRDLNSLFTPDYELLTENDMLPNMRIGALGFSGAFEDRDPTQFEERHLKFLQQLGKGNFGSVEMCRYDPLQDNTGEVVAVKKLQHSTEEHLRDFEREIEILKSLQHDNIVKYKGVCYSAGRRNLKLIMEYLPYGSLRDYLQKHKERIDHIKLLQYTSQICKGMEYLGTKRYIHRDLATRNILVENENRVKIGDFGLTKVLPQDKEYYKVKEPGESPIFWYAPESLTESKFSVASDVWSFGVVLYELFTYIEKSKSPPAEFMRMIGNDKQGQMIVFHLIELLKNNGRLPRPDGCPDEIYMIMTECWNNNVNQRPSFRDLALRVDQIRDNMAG
# Sequence of JAK1 (P23458 whole entry): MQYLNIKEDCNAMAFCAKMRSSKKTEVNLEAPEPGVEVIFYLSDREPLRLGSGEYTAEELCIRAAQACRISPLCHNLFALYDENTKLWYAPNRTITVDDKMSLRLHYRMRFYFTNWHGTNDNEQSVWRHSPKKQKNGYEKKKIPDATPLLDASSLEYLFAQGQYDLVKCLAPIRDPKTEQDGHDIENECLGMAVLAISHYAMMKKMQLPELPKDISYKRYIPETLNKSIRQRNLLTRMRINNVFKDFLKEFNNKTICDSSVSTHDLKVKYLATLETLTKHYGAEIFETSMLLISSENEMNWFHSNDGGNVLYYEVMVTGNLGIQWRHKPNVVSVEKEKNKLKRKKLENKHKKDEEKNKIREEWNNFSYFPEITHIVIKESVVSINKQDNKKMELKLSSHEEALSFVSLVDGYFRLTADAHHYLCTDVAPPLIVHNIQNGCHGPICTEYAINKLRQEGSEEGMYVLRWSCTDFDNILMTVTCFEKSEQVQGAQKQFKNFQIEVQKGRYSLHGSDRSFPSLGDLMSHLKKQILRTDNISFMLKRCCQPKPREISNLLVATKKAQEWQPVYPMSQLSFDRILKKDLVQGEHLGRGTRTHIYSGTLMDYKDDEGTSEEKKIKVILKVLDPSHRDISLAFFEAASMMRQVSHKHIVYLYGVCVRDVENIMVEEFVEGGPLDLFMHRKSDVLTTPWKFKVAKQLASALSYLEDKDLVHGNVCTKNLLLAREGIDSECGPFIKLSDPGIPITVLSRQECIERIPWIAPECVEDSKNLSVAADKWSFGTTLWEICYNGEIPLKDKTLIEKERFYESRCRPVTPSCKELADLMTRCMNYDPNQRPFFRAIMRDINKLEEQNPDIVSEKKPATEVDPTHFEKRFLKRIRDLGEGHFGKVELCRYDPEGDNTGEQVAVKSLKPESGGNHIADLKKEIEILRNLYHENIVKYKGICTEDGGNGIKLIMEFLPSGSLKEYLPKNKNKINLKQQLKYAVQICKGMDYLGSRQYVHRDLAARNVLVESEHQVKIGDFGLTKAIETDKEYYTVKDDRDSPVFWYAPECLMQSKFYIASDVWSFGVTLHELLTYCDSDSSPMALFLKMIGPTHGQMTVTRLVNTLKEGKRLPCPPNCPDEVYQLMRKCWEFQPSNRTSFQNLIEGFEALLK
SMILES,Ki (JAK1) [nM],JAK2 pKi (JAK2),IC50 [1] [nM],Ki (JAK2) [nM],JAK1 pKi (JAK1)
CCc1cc(O)ccc1-c1ccc2c(-c3nc(C4=CCN(CCC5(O)CCC5)C4)c[nH]3)n[nH]c2c1F [Example 308],0.1 to 1,A (A represents a pKi value ≥10 (Ki≤0.1 nM)),10 to 31.6,–,–
CCc1cc(O)ccc1-c1ccc2c(-c3nc(C4=C[C@H](CC(=O)OC(C)C)NC4)c[nH]3)n[nH]c2c1F [Example 309],0.1 to 1,–,10 to 31.6,0.1 to 1,–
CCc1cc(O)ccc1-c1ccc2c(-c3nc(C4=C[C@H]([C@H](C)O)NC4)c[nH]3)n[nH]c2c1F [Example 310],0.1 to 1,A (A represents a pKi value ≥10 (Ki≤0.1 nM)),10 to 31.6,–,–
CCc1cc(O)ccc1-c1ccc2c(-c3nc(C4=CCN[C@@H](C)C4)c[nH]3)n[nH]c2c1F [Example 311],0.1 to 1,–,10 to 31.6,0.1 to 1,–
CCc1cc(O)ccc1-c1ccc2c(-c3nc(C4=CCNC(CC)C4)c[nH]3)n[nH]c2c1 (stereo not drawn) [Example 312],0.1 to 1,–,10 to 31.6,0.1 to 1,–
CCc1cc(O)ccc1-c1ccc2c(-c3nc(C4=CCNC4C)c[nH]3)n[nH]c2c1F (stereo not drawn) [Example 313],0.1 to 1,–,10 to 31.6,0.1 to 1,–
CCc1cc(O)ccc1-c1ccc2c(-c3nc(C4=C[C@H](CCO)NC4)c[nH]3)n[nH]c2c1F [Example 314],0.1 to 1,–,10 to 31.6,0.1 to 1,–
CCc1cc(O)ccc1-c1ccc2c(-c3nc(C4=C(C(=O)OC(C)C)CCNC4)c[nH]3)n[nH]c2c1F [Example 315],0.1 to 1,–,10 to 31.6,0.1 to 1,–
CCCCN1CC=C(c2c[nH]c(-c3n[nH]c4c(F)c(-c5ccc(O)cc5CC)ccc34)n2)C1 [Example 316],–,A (A represents a pKi value ≥10 (Ki≤0.1 nM)),10 to 31.6,–,A (A represents a pKi value ≥10 (Ki≤0.1 nM))
CCc1cc(O)ccc1-c1ccc2c(-c3nc(C4=CCN(CCNC(=O)C5CCC5)CC4)c[nH]3)n[nH]c2c1F [Example 317],0.1 to 1,–,10 to 31.6,0.1 to 1,–
CCc1cc(O)ccc1-c1ccc2c(-c3nc(C4=CCN(C[C@@H](C)CO)C4)c[nH]3)n[nH]c2c1F [Example 318],0.1 to 1,–,10 to 31.6,0.1 to 1,–
CCc1cc(O)ccc1-c1ccc2c(-c3nc(C4=CCN[C@H](C)C4)c[nH]3)n[nH]c2c1F [Example 319],0.1 to 1,–,10 to 31.6,0.1 to 1,–
CCc1cc(O)ccc1-c1ccc2c(-c3nc(C4=CCN(CCC5(O)CC5)C4)c[nH]3)n[nH]c2c1F [Example 320],0.1 to 1,A (A represents a pKi value ≥10 (Ki≤0.1 nM)),10 to 31.6,–,–
CCc1cc(O)ccc1-c1ccc2c(-c3nc(C4=CCN(CCC5(O)CC5)CC4)c[nH]3)n[nH]c2c1F [Example 322],0.1 to 1,–,10 to 31.6,0.1 to 1,–
CCOC(=O)C1=C(c2c[nH]c(-c3n[nH]c4c(F)c(-c5ccc(O)cc5CC)ccc34)n2)CCNC1 [Example 323],0.1 to 1,–,10 to 31.6,0.1 to 1,–
CCc1cc(O)ccc1-c1ccc2c(-c3nc(C4=CCNCC4C)c[nH]3)n[nH]c2c1F (stereo not drawn) [Example 324],0.1 to 1,–,10 to 31.6,0.1 to 1,–
CCc1cc(O)ccc1-c1ccc2c(-c3nc(C4=C(C(=O)OC(C)C)CNCC4)c[nH]3)n[nH]c2c1F [Example 325],0.1 to 1,–,10 to 31.6,0.1 to 1,–
CCc1cc(O)ccc1-c1ccc2c(-c3nc(C4=CCN(Cc5cnoc5)CC4)c[nH]3)n[nH]c2c1F [Example 326],0.1 to 1,–,10 to 31.6,0.1 to 1,–
CCc1cc(O)ccc1-c1ccc2c(-c3nc(C4=CC(C)CNC4)c[nH]3)n[nH]c2c1F (stereo not drawn) [Example 327],0.1 to 1,–,10 to 31.6,0.1 to 1,–
CCc1cc(O)c(C)cc1-c1ccc2c(-c3nc(C4=CCNC4)c[nH]3)n[nH]c2c1F [Example 328],0.1 to 1,–,10 to 31.6,1 to 10,–
CCc1cc(O)ccc1-c1ccc2c(-c3nc(C4=C[C@H](CO)N(CCC(C)(C)O)C4)c[nH]3)n[nH]c2c1F [Example 329],–,A (A represents a pKi value ≥10 (Ki≤0.1 nM)),10 to 31.6,–,A (A represents a pKi value ≥10 (Ki≤0.1 nM))
CCc1cc(O)ccc1-c1ccc2c(-c3nc(C4=CCN([C@H]5CC[C@](C)(O)CC5)C4)c[nH]3)n[nH]c2c1F [Example 330],–,–,10 to 31.6,0.1 to 1,A (A represents a pKi value ≥10 (Ki≤0.1 nM))
CCc1cc(O)ccc1-c1ccc2c(-c3nc(C4=CCN(C5CCC(CO)CC5)C4)c[nH]3)n[nH]c2c1F (stereo not drawn) [Example 331],–,–,10 to 31.6,0.1 to 1,A (A represents a pKi value ≥10 (Ki≤0.1 nM))

SMILES,Ki (JAK1) [nM],JAK2 pKi (JAK2),IC50 [1] [nM],Ki (JAK2) [nM],JAK1 pKi (JAK1)
CCc1cc(O)ccc1-c1ccc2c(-c3nc(C4=CCN(C[C@H](C)CO)C4)c[nH]3)n[nH]c2c1F [Example 332],0.1 to 1,–,10 to 31.6,0.1 to 1,–
CCc1cc(O)ccc1-c1ccc2c(-c3nc(C4=CCN(C(=O)CN(C)C)C4)c[nH]3)n[nH]c2c1F [Example 333],0.1 to 1,A (A represents a pKi value ≥10 (Ki≤0.1 nM)),10 to 31.6,–,–
CCc1cc(O)ccc1-c1ccc2c(-c3nc(C4=CCN(CCC5(O)CCC5)CC4)c[nH]3)n[nH]c2c1F [Example 334],0.1 to 1,–,10 to 31.6,0.1 to 1,–
CCc1cc(O)ccc1-c1ccc2c(-c3nc(C4=CC5CN(C)CCN5CC4)c[nH]3)n[nH]c2c1F (stereo not drawn) [Example 335],0.1 to 1,–,10 to 31.6,0.1 to 1,–
CCc1cc(O)ccc1-c1ccc2c(-c3nc(C4=CC(C)(C)NC4)c[nH]3)n[nH]c2c1F [Example 336],0.1 to 1,–,10 to 31.6,0.1 to 1,–
CCc1cc(O)ccc1-c1ccc2c(-c3nc(C4=CC[C@H](C)N([C@H]5C[C@H](O)C5)C4)c[nH]3)n[nH]c2c1F [Example 337],0.1 to 1,–,10 to 31.6,0.1 to 1,–
CCc1cc(O)ccc1-c1ccc2c(-c3nc(C4=CCCN(CCC5(O)CC5)C4)c[nH]3)n[nH]c2c1F [Example 338],0.1 to 1,–,10 to 31.6,0.1 to 1,–
CCc1cc(O)ccc1-c1ccc2c(-c3nc(C4=C[C@@H](C)NCC4)c[nH]3)n[nH]c2c1F [Example 339],0.1 to 1,–,10 to 31.6,0.1 to 1,–
CCc1cc(O)ccc1-c1ccc2c(-c3nc(C4=C[C@H](CC(=O)N(CC)CC)NC4)c[nH]3)n[nH]c2c1F [Example 340],–,A (A represents a pKi value ≥10 (Ki≤0.1 nM)),10 to 31.6,–,A (A represents a pKi value ≥10 (Ki≤0.1 nM))
CCc1cc(O)ccc1-c1ccc2c(-c3nc(C4=CCN([C@H]5CC[C@@](C)(O)CC5)C4)c[nH]3)n[nH]c2c1F [Example 341],–,A (A represents a pKi value ≥10 (Ki≤0.1 nM)),10 to 31.6,–,A (A represents a pKi value ≥10 (Ki≤0.1 nM))
CCc1cc(O)ccc1-c1ccc2c(-c3nc(C4=CCN(CCC(=O)NC)C4)c[nH]3)n[nH]c2c1F [Example 342],0.1 to 1,–,10 to 31.6,0.1 to 1,–
CCc1cc(O)ccc1-c1ccc2c(-c3nc(C4=CCNC5(CC5)C4)c[nH]3)n[nH]c2c1 [Example 343],0.1 to 1,–,10 to 31.6,0.1 to 1,–
CCc1cc(O)ccc1-c1ccc2c(-c3nc(C4=C[C@@H](CO)N(C)C4)c[nH]3)n[nH]c2c1F [Example 344],0.1 to 1,–,10 to 31.6,0.1 to 1,–
CCc1cc(O)ccc1-c1ccc2c(-c3nc(C4=CCNC(CC)C4)c[nH]3)n[nH]c2c1F (stereo not drawn) [Example 346],1 to 10,–,10 to 31.6,0.1 to 1,–
CCc1cc(O)ccc1-c1ccc2c(-c3nc(C4=CCN[C@@H](CO)C4)c[nH]3)n[nH]c2c1F [Example 347],–,A (A represents a pKi value ≥10 (Ki≤0.1 nM)),31.6 to 100,–,A (A represents a pKi value ≥10 (Ki≤0.1 nM))
CCc1cc(O)ccc1-c1ccc2c(-c3nc(C4=C[C@H](CO)NCC4)c[nH]3)n[nH]c2c1F [Example 348],0.1 to 1,A (A represents a pKi value ≥10 (Ki≤0.1 nM)),31.6 to 100,–,–
CCc1cc(O)ccc1-c1ccc2c(-c3nc(C4=CCN(C(=O)CNC)C4)c[nH]3)n[nH]c2c1F [Example 349],0.1 to 1,A (A represents a pKi value ≥10 (Ki≤0.1 nM)),31.6 to 100,–,–
CCc1cc(O)ccc1-c1ccc2c(-c3nc(C4=CCN(C(=O)CN5CCCC5)C4)c[nH]3)n[nH]c2c1F [Example 351],0.1 to 1,A (A represents a pKi value ≥10 (Ki≤0.1 nM)),31.6 to 100,–,–
CCc1cc(O)ccc1-c1ccc2c(-c3nc(C4=CCNC5(CC5)C4)c[nH]3)n[nH]c2c1F [Example 352],0.1 to 1,–,31.6 to 100,0.1 to 1,–
CCOC(=O)C1=C(c2c[nH]c(-c3n[nH]c4cc(-c5ccc(O)cc5CC)ccc34)n2)CCNC1 [Example 354],0.1 to 1,–,31.6 to 100,0.1 to 1,–
CCc1cc(O)ccc1-c1ccc2c(-c3nc(C4=C[C@H](CO)N(Cc5cnoc5)C4)c[nH]3)n[nH]c2c1F [Example 355],0.1 to 1,–,31.6 to 100,0.1 to 1,–
CCc1cc(O)ccc1-c1ccc2c(-c3nc(C4=CCNC(C(C)(C)C)C4)c[nH]3)n[nH]c2c1 (stereo not drawn) [Example 356],0.1 to 1,–,31.6 to 100,0.1 to 1,–
